Source: US20110229534A1, “Non-Irritating Oral Care Formulations” (The Trustees of Columbia University In The City Of New York, priority 2006, published 2011)
Like-named read-outs stand apart in the source and are kept apart here.

Experiments:
[1] = oral rinse containing ketorolac; small number of patients; cited from earlier work
[2] = oral administration; cited from earlier work
[3] = system: GCF-IL-1 beta; conditions: used as an oral rinse; cited from earlier work
[4] = system: Streptococcus mutants; conditions: for Growth: CFU/ml: subcultured on TSA, 24 hours
Protocol: A culture of Streptococcus mutants (causative bacteria for dental plaque) was grown in brain/heart infusion (BHI). Tubes containing 5 ml of BHI were inoculated with 0.1 ml of 10^5 CFU bacteria/ml and incubated anaerobically at 37° C. After 24 hours the turbidity was measured; the tubes were subcultured on TSA and incubated for 24 hours and colony counts were measured.

[5] = cited from earlier work

O=C(c1ccccc1)c1ccc2n1CCC2C(=O)O (stereo not shown) [ketorolac]
oral mucosal side effect [1]: ulceration in the oral mucosa was observed | gastric mucosal side effect [2]: gastric mucosal ulceration | effect on GCF-IL-1 beta in the oral cavity [3]: reduce GCF-IL-1 beta

Zinc salicylate
anti-Streptococcus activity (conclusion) [4]: exhibit anti-Streptococcus activity | Growth: CFU/ml ([4]; 25 ug/ml): >10^8 CFU/ml | Growth: CFU/ml ([4]; 50 ug/ml): >10^6 CFU/ml | Growth: CFU/ml ([4]; 100 ug/ml): 10 CFU/ml | Growth: CFU/ml ([4]; 200 ug/ml): 0 CFU/ml

zinc glycerate
water solubility (in words) [5]: moderately water soluble

zinc picolinate
water solubility (in words) [5]: moderately water soluble
